Columns and labels:
Assay type in all cases: cell-based
[1] = test system: normal human epithelial like cells (CRL-1790); experiment: New fuchsine treatment of normal human epithelial like cells, H&E staining, light microscopy (Example 1); settings: all tested concentrations (25, 50, 100, 150 uM), 48 hours, H&E stain
Method: (§1) 4 flasks Thermo Scientific Nunc Nunclon Delta Surface 12.5 cm (Cat.No136196) with McCoy's5A complete medium were seeded with cell culture of CRL1790 (ATCC) and 4 flasks Thermo Scientific Nunc Nunclon Delta Surface 12.5 cm (Cat.No136196) with McCoy's5A complete medium were seeded with cell culture of HT29 (ATCC) and were kept at 37 degrees 5% CO2 in CO2 incubator until it reached of 70% confluence (2 days). After reaching of 70% confluence flasks McCoy's5A medium with 10% of FBS was changed to the same medium with different concertation of new fuchsine (0 uM, 25 uM, 50 uM, 100 uM, 150 uM) (Sigma Cat. No 72200). Flasks were kept in the CO2 incubator 5% CO2, 37-degree C for additional 48 hours. After 48 hours of treatment all flasks were stained by fixed by 10% Formaldehyde and stained by H&E. After completing of the staining protocol the flasks were examined in the light microscope under magnification x100 and multiple pictures were taken using Olympus BX51 microscope and Olympus DP73 digital camera.

[2] = test system: Human colon carcinoma cells (HT29); experiment: New fuchsine treatment of human colon carcinoma cells, H&E staining, light microscopy (Example 1); settings: 48 hours, H&E stain
Method: as §1

[3] = test system: normal human epithelial like cells (CRL-1790); experiment: New fuchsine treatment of normal human epithelial like cells, H&E staining, light microscopy (Example 2); settings: all tested concentrations (50 uM), 12 hours, H&E stain
Method: (§2) 2 flasks Thermo Scientific Nunc Nunclon Delta Surface 12.5 cm (Cat. No 136196) with McCoy's5A complete medium were seeded with cell culture of CRL1790 (ATCC) and 2 flasks Thermo Scientific Nunc Nunclon Delta Surface 12.5 cm (Cat. No 136196) with DMEM complete medium were seeded with cell culture of HT1080 (ATCC) and were kept at 37 degrees 5% CO2 in CO2 incubator until it reached of 100% confluence (2 days). After reaching of 100% confluence medium with 10% of FBS was changed to the same medium with different concertation of New Fuchsin (0 uM, and 50 uM) (Sigma Cat. No 72200). Flasks were kept in the CO2 incubator 5% CO2, 37-degree C for additional 12 hours. After 12 hours of treatment all flasks were stained by fixed by 10% Formaldehyde and stained by H&E. After completing of the staining protocol the flasks were examined in the light microscope under magnification x100 and multiple pictures were taken using Olympus BX51 microscope and Olympus DP73 digital camera.

[4] = test system: Fibrosarcoma cells (HT-1080); experiment: New fuchsine treatment of human fibrosarcoma cells, H&E staining, light microscopy (Example 2); settings: new fuchsine 50 uM, 12 hours, H&E stain; corresponds to empty plastic
Method: as §2

[5] = test system: Human Cervical carcinoma cell line (HeLa); experiment: New fuchsine treatment of HeLa cells, Trypan blue, automatic cell counter (Example 3)
Method: (§3) Hela cells were growing in incubator at 37 degrees C. and 5% CO2 until 70% confluence was reached. After reaching of 70% confluence, medium was changed to medium with different concentrations of new fuchsine (0 μM, 15 μM, 31 μM, 62 μM, 125 μM and 250 μM). Flasks were kept in the CO2 incubator (5% CO2, 37-degree C) for additional 24 hours. After 24 hours of treatment, cells were detached with Trypsin, washed with fresh medium and stained with Trypan blue. Number of cells and viability were examined in automatic cell counter (Invitrogen).

[6] = test system: human colon adenocarcinoma cells (HT29); experiment: New fuchsine treatment of HT29 cells, Trypan blue, automatic cell counter (Example 4)
Method: as §3, with “The general study methods of study were as follows: HT29 cells” for “Hela cells”, “were grown” for “were growing”, “different concentration” for “different concentrations”, “of treatment” for “of treatment,”, “blue. Cell” for “blue. Number of cells and”, “viability was” for “viability were”

[7] = new fuchsine 250 uM, 24 hours, Trypan blue

Compound: CC1=CC(=C(c2ccc(N)c(C)c2)c2ccc(N)c(C)c2)C=CC1=N.Cl [new fuchsine, [4-[bis(4-amino-3-methylphenyl)methylidene]-2-methylcyclohexa-2,5-dien-1-ylidene]azanium; chloride]
- visual toxicity to normal human epithelial like cells (CRL-1790) [1]: did not exhibit any visual toxicity
- concentration at which first signs of toxicity to colon carcinoma cells (HT29) can be seen [2]: 50 µM
- toxicity to carcinoma cells (HT29) ([2]; new fuchsine 150 uM, corresponds to empty plastic): 100%
- visual toxicity to normal human epithelial like cells (CRL-1790) [3]: did not exhibit any visual toxicity
- toxicity to Fibrosarcoma cells (HT-1080) [4]: 100%
- toxicity to human carcinoma cells (HeLa) ([5]; all tested concentrations (15, 31, 62, 125, 250 μM), 24 hours, Trypan blue viability and cell count): exhibited toxicity
- toxicity to carcinoma cells (HeLa) [5, 7]: 100%
- cytotoxic effect on cervical carcinoma (HeLa cells), summary ([5]; summary of the examples): high efficacy, dose dependent cytotoxic effect
- toxicity to human colon adenocarcinoma cells (HT29) ([6]; all tested concentrations (15, 31, 62, 125, 250 μM), 24 hours, Trypan blue viability): did exhibit toxicity
- toxicity to colon adenocarcinoma cells (HT29) [6, 7]: < 100%
- efficacy for colon carcinoma (HT29 cells) compared with cervical carcinoma (HeLa cells), summary ([6]; summary of the examples): much less effective
